# Test results reported in a melting point compilation (Tetko et al.; mined from patent text by program, amines drawn as free bases though some values may be those of a salt).
row,melting point [°C],SMILES
1,88 to 90,CC(=O)Oc1ccc(C(=NNc2cccc([N+](=O)[O-])c2)c2ccc(OC(C)=O)cc2)cc1
2,167 to 169,COc1ccc([N+](=O)[O-])c(CS(=O)(=O)c2ccccc2)c1
3,123 to 126,CC(C)OC(=O)N1CCC(c2nc3cc(-c4ccc(C(F)(F)F)cc4)ccc3o2)CC1
4,168 to 169,Nc1ccc2ncc(Br)cc2n1
5,208 to 210,NC(=O)c1ccc(NC2CCOCC2)cc1
6,149 to 150,CCC(CC)N1CC2=C3C(=NN(c4ccc(C(C)C)cc4Br)C(=O)N3CC2)C(C)=N1
7,199 to 200,NC(=O)C1(N2C(=O)c3cccc(Br)c3C2=O)CCCCC1
8,166 to 168,Oc1ccc2c(c1O)OCC(c1ccc(F)cc1)C2 (stereo not drawn)
9,214 to 217,Cc1nc2sc(Cl)cn2c(=O)c1O
10,124,CC(=O)c1ccc2c(=O)c(Br)c(C)oc2c1
11,129 to 130,CNC(=S)SCCC(=O)N1CCC[C@H]1C(=O)OC(C)(C)C
12,185 to 188,CC(=O)CC(=O)C=Cc1cc(O)ccc1Br
13,100,CN(C)C=CC(=O)c1cc(Cl)cc(Cl)c1
14,145 to 147,COc1ccc2[nH]c(/C=C/C=O)cc2c1
15,159 to 160,CCCCN(C1c2cc(OCc3ccccc3)ccc2OC(C)(C)C1O)S(C)(=O)=O (stereo not drawn)
16,199 to 203,CC(C)(C)c1ccc(N(CCCOc2ccc(C(=O)O)cc2)C(=O)c2ccc3c(c2)OCO3)cc1
17,245 to 251,CN(C)c1ccc(-c2nc3c(N[C@H]4[C@@H](C(N)=O)[C@@H]5C=C[C@H]4C5)ccnc3[nH]2)cc1
18,235,c1ccc(-c2ccc3nc(C4(c5ccc6nccnc6c5)N=c5ccccc5=N4)[nH]c3c2)cc1
19,88 to 89,O=C(Nc1ccc(Oc2ccnc(NCCN3CCCCC3)n2)c2ccccc12)c1cc(F)cc(N2CCCCC2)c1
20,131 to 135,OCc1ccc(OCc2ccc3ccccc3n2)cc1
21,243 to 245,CCn1ncc2c3noc(-c4ccc(C(F)(F)F)cc4)c3cnc21
22,139,CCN(CC1CCCC1)c1nc2c(cc1CN(Cc1cc(C(F)(F)F)cc(C(F)(F)F)c1)C(N)=O)c(C)nn2C

row,melting point [°C],SMILES
1,78 to 80,CCOC(=O)c1ccccc1Nc1nc(Nc2ccc3c(c2)CCN(CCOC)CC3)ncc1Cl
2,242 to 244,Cc1nc(N)nc(N)c1-c1cc(Cl)cc(Cl)c1
3,63 to 65,COC(=O)C1CC(=O)N(Cc2ccccc2)C1 (stereo not drawn)
4,60 to 61,CC1(Br)C(Br)=C(Br)C(Br)=C1Br
5,110 to 111,COc1cc(OC)cc(N(C)S(=O)(=O)c2ccc(C)cc2)c1
6,205 to 212,O=Cc1ccc2c(c1)CCC(C(=O)O)C2 (stereo not drawn)
7,123 to 129,Cc1cccc(Nc2ncnc3ccc(CSc4nc5ccccc5[nH]4)cc23)c1
8,193 to 195,O=C1OC(Cc2ccccc2)=NC1=Cc1cccs1
9,153 to 154,NS(=O)(=O)c1ccccc1C=CC(F)(F)F
10,136,COC(=O)C(c1ccccc1)(c1ccccc1)c1c[nH]c(C)n1
11,105 to 106,C#CCNC(=O)N1CC(Oc2cccc(C(F)(F)F)c2)C1
12,67 to 70,COc1ccc(CNC(=S)SC)cc1
13,159,CNC(=S)C1(c2cnc3ccccc3c2)CCCS1 (stereo not drawn)
14,163 to 167,CCOC(=O)c1cn(C2CC2)c2nc(N3C[C@@H](CN)[C@@H](Cl)C3)c(F)cc2c1=O (relative stereo)
15,250 to 252,Nc1nc(Oc2ccccc2)nc2nc(-c3ccco3)nn12
16,202 to 204,COc1cc2ncnc(N3CCN(C(=O)NCc4cnc(C)cn4)CC3)c2cc1OC
17,83 to 85,O=C1CCCC(S(=O)(=O)c2ccccc2)C1 (stereo not drawn)
18,121 to 127,O=C(Nc1ccccc1)C1CCNCC1
19,294 to 297,Nc1nc(=O)n(C(=O)NC2CCCC2)cc1F
20,131 to 132,OC[C@H]1CCc2cccc(O)c2O1
21,258,O=C(O)C1Cc2sccc2C(=O)N1Cc1ccccc1 (stereo not drawn)
22,61.7,C=CCC(C#N)(C#N)Cc1ccc(Br)cc1

row,melting point [°C],SMILES
1,62 to 64,COc1ccc2ccc(C(=O)NC(C)C)c(OC(C)C)c2c1
2,217 to 219,CN(c1ccc(Cl)cc1)S(=O)(=O)c1c[nH]cn1
3,> 255,CCc1nc2c(N)nc3cccnc3c2n1CC1(O)CCN(S(C)(=O)=O)CC1
4,188,C=CCOC(=O)C1=C(C)Nc2nc(N)nc(N)c2C1c1cccc([N+](=O)[O-])c1 (stereo not drawn)
5,114,Cc1ccc(O)c(Cn2c(NCCCN3CCOCC3)nc3ccc(CNc4c(C)cc(CCC#N)cc4C)cc32)n1
6,120 to 123,C=CCn1nc(-c2cc(C(C)(C)C)c(O)c(C(C)(C)C)c2)c2cccnc21
7,175,CC(=O)OC1CSC(Br)C(OC(C)=O)C1OC(C)=O (stereo not drawn)
8,184 to 186,CC1(C)Cc2ccccc2C1c1cncnc1S (stereo not drawn)
9,111 to 112,O=C(Oc1c(F)c(F)c(F)c(F)c1F)c1ccccc1O
10,250 to 252,CNC(=O)c1ccc(Nc2cc(-n3ccc(C(F)(F)F)n3)c3ccccc3n2)cc1
11,232 to 234,Cc1cc(Br)cnc1CCCCNc1ncc(Cc2ccc(O)cc2)c(=O)[nH]1
12,248 to 250,CC(=O)CC(=O)Nc1nc2ccc(NC(C)=O)cc2s1
13,268 to 270,O=c1cc(-c2ccncc2)nc2n1CCC(c1ccncc1)N2 (stereo not drawn)
14,160 to 162,COc1ccc(-c2cc3nc(N(C)C)c4ccccc4c3nn2)cc1
15,94 to 95,CCOC(=O)c1cn(Cc2ccc(OCc3csc(-c4ccccc4)n3)cc2)nc1-c1cccs1
16,113 to 115,COC(=O)c1ccc(S(=O)C(Cn2ccnc2)c2ccccc2OC)cc1 (stereo not drawn)
17,300,c1ccc(-c2ncc(-c3cnc(-c4ccncc4)[nH]3)cn2)cc1
18,190 to 192,CS(=O)(=O)c1ccc(-n2nc(C(F)(F)F)cc2-c2ccc(-c3ncco3)cc2)cc1
19,159 to 160,CC(=O)N(CC(C)C)C1NC(=O)N(c2ccc(C)cc2)C(=O)N1
20,92 to 93,CN1CC(CCN2CCN(c3cccc(F)c3)CC2)OC1=O (stereo not drawn)
21,125 to 126,O=S1CCNCc2c(Cl)cccc21 (stereo not drawn)
22,92 to 94,CCCCc1oc2ccccc2c1C(=O)c1cc(Br)c(OCC(=O)O)c(Br)c1

row,SMILES,melting point [°C]
1,O=C(CSCc1ccccc1)CS(=O)(=O)C(c1ccc(Cl)cc1)c1ccc(Cl)cc1,108 to 110
2,O=C1c2ccc(Cl)cc2CC1Cl (stereo not drawn),63 to 66
3,CON=C1CCC(C)(C)c2cc(C)c(-c3cc(C=C4SC(=O)NC4=O)ccc3N(C)C)cc21,254 to 256
4,O[C@H](COc1cccc2[nH]ccc12)CN1CC=C(c2c[nH]c3ccc(F)cc23)CC1,95 to 100
5,Fc1cc2c(c3cccnc13)OC(CN1CC=C(c3c[nH]c4ccccc34)CC1)CO2 (stereo not drawn),215
6,C#CC1(O)CCC2C3C(C)CC4=CC(=O)CCC4C3CCC21CC (stereo not drawn),182 to 184
7,Cc1cccc(NC(=O)NC2N=C(c3ccccc3F)c3ccccc3N(Cc3ccsc3)C2=O)c1 (racemic),221 to 223
